Source: the NIST ThermoML archive (doi:10.1016/j.tca.2015.03.027)
± gives the expanded uncertainty stated by the source.

Tests used:
[1] = Crystal; DTA
[2] = Molar enthalpy of transition or fusion; conditions: Crystal; DSC
[3] = molar heat capacity at constant pressure; conditions: 290 K; 101.33 kPa; Crystal; Small sample (50 mg) DSC
[4] = molar heat capacity at constant pressure; wn = mass fraction of the nth substance listed; conditions: 320 K; 96 kPa; Liquid; Small sample (50 mg) DSC; w1 = 0.649

Structure (SMILES)	Normal melting temperature [1] [°C]	Molar enthalpy of transition or fusion [2] [kcal/mol]	molar heat capacity at constant pressure [3] [J/K/mol]	molar heat capacity at constant pressure [4] [J/K/mol]
O.O.O.O.O.O.[Br-].[Br-].[Ca+2] [calcium bromide hexahydrate]	34.00 ± 2	10.5 ± 0.335	363.41 ± 37	–
[Br-].[Br-].[Ca+2] [calcium bromide] + O	–	–	–	75.67 ± 7.5
